How the values were obtained:
[1] = system: replacement gilts (Landrace×Large White) / parity-one sows; test: Reproductive performance of parity-one sows fed 25-hydroxy-vitamin D3 (Experiment 1); type: in vivo, pig
Text: (§1) In a commercial pig farm a total of 27 six-month-old replacement gilts (Landrace×Large White) were selected. There were two dietary treatments in different stages of the reproductive cycle (replacement gilt development, gestation, lactation). The control diet was the standard farm diet without the supplementation of 25-hydroxy-vitamin D3. The experimental diet was the standard farm diet supplemented with 25-hydroxy-vitamin D3 at 50 mcg per kg diet.
(§2) Fourteen (14) gilts were randomly selected and assigned to the control group and the other 13 gilts to the ROVIMIX® Hy•D® 1.25% group. Breeding started when the gilts were 7 months old. They were placed in the gestating stalls after breeding and remained there until 14 days before the expected date of farrowing. They were then weighed and moved to the farrowing stalls. Piglets were weaned at 28 days of age.
(§3) The following data were collected in the farrowing stalls in Experiments 1 and 2: • 1. Litter size at birth • a. Total pigs born • b. Pigs born alive • c. Stillborn pigs • d. Mummified fetuses • 2. Pig weight at birth • 3. Litter size at weaning • 4. Mortality • 5. Pig weight at weaning

[2] = system: replacement gilts (Landrace×Large White) / parity-one sows; test: Reproductive performance of parity-one sows fed 25-hydroxy-vitamin D3 (Experiment 2); type: in vivo, pig
Text: as §1, with “In another” for “In a”, “of 43” for “of 27”
as §2, with “Twenty-two (22)” for “Fourteen (14)”, “21” for “13”
as §3

[3] = 50 mcg per kg diet, 28-day weaning

## C=C1CC[C@H](O)C/C1=C/C=C1\CCC[C@]2(C)[C@@H]([C@H](C)CCCC(C)(C)O)CC[C@@H]12 [25-hydroxy-vitamin D3]
[1]; 50 mcg per kg diet
  BWT = Body weight of pigs at birth: 1.45 kg
  LSBA = Litter size of number of pigs born alive: 9.77
[1]; [3]
  LSW = Litter size of number of pigs weaned at 28-day weaning: 9.46
[1]; birth to 28-day weaning, control 5.33 kg
  Piglet weight gain at 28-day weaning: 5.5 kg
[1]; result in words
  Weaning weights compared with control: not different from each other
[1]; standard farm diet supplemented with 25-hydroxy-vitamin D3 at 50 mcg per kg diet, gilt development, gestation, lactation
  LSBT = Litter size of total number of pigs at birth: 10.46
[1]; treated minus control
  Difference in litter size at weaning vs. control: +1.82
  Difference in pigs born alive vs. control: +1.84
  Difference in total pigs born vs. control: +1.46
[2]; 50 mcg per kg diet
  LSBA = Litter size of number of pigs born alive: 9.62
[2]; [3]
  LSW = Litter size of number of pigs weaned at 28-day weaning: 8.48
[2]; treated minus control
  Difference in litter size at weaning vs. control: +0.66
  Difference in pigs born alive vs. control: +0.44

— patent US8685949B2, “Use of 25-hydroxy vitamin D3 to improve vitality of animals” (DSM IP Assets B.V., priority 2005, dated 2014)
